Tests used:
Type in all cases: biochemical
[1] = target: T1, FadDSm, acyl-CoA synthetase FadD from S. meliloti 1021 (Sinorhizobium meliloti, UniProt Q7APF7); assay: [3H]palmitoyl-CoA formation, heptane extraction, scintillation counting; details: 10 mM ATP, 10 mM MgSO4, 1 mM Triton X-100, pH 8.0, 37 C, 40 uM CoA
T1 construct: full length, His6-tagged (pET28a, pECH3), E. coli BL21(DE3) pLysS host, IMAC-purified, tag kept

[2] = target: T2, SPTSw (Swit_3900), serine palmitoyltransferase (Rhizorhabdus wittichii, UniProt A0A9J9HEF8); assay: L-[…]serine incorporation into 3-oxo-sphinganine, TLC autoradiography, empty-vector control; details: 10 uM palmitoyl-CoA, 432 uM L-[14C]serine, 10 uM pyridoxal phosphate, pH 7.5, 30 C; minor product
T2 construct: full length, expressed from pET9a (pJPG02) in E. coli BL21(DE3) pLysS, cell-free extract
T2 sequence (A0A9J9HEF8 1-400): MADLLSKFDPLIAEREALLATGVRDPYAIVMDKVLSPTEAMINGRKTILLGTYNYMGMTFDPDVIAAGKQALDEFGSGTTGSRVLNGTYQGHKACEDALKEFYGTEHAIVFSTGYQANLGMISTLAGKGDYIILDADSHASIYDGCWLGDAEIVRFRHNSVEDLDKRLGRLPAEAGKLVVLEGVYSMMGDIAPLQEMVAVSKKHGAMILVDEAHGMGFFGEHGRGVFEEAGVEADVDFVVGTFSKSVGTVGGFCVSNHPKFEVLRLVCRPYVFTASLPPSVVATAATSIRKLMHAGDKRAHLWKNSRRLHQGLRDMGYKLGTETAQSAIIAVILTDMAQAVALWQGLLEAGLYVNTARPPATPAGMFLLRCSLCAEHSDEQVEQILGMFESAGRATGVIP

[3] = target: T3, SPTEc (ECD_02854), serine palmitoyltransferase (Escherichia coli, UniProt B1LEF2); assay: as above; details: 10 uM palmitoyl-CoA, 432 uM L-[14C]serine, 10 uM pyridoxal phosphate, pH 7.5, 30 C; minor product
T3 construct: gene EcSMS35_3263; full length, expressed from pET9a (pJPG01) in E. coli BL21(DE3) pLysS, cell-free extract
T3 sequence (B1LEF2 1-390): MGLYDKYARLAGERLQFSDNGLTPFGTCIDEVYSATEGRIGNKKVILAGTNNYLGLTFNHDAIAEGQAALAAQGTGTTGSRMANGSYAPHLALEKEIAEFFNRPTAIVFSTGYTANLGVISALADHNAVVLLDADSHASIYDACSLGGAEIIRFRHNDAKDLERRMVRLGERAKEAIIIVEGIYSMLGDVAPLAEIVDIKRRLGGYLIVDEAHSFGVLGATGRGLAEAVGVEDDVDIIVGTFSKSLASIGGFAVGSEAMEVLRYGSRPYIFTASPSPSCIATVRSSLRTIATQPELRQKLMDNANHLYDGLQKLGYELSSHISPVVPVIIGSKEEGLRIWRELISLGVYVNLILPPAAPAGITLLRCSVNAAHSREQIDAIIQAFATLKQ

[4] = target: T4, SPTCc (CC_1162), serine palmitoyltransferase (Caulobacter vibrioides, UniProt Q9A932); assay: as above; details: 10 uM palmitoyl-CoA, 432 uM L-[14C]serine, 10 uM pyridoxal phosphate, pH 7.5, 30 C; minor product
T4 construct: full length, expressed from pET9a (pJPG08) in E. coli BL21(DE3) pLysS, cell-free extract
T4 sequence (Q9A932 1-404): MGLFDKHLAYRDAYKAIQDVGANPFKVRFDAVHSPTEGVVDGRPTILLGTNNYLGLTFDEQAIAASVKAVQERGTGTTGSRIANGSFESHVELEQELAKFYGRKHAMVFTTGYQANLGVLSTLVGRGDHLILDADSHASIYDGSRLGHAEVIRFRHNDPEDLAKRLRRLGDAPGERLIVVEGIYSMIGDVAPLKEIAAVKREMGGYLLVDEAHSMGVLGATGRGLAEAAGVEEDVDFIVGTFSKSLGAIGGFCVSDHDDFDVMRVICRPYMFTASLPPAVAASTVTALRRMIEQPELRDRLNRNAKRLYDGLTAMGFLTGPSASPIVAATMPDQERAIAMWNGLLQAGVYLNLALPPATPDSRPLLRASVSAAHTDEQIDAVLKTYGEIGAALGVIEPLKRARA

T1 sequence (Q7APF7 entry or part of it): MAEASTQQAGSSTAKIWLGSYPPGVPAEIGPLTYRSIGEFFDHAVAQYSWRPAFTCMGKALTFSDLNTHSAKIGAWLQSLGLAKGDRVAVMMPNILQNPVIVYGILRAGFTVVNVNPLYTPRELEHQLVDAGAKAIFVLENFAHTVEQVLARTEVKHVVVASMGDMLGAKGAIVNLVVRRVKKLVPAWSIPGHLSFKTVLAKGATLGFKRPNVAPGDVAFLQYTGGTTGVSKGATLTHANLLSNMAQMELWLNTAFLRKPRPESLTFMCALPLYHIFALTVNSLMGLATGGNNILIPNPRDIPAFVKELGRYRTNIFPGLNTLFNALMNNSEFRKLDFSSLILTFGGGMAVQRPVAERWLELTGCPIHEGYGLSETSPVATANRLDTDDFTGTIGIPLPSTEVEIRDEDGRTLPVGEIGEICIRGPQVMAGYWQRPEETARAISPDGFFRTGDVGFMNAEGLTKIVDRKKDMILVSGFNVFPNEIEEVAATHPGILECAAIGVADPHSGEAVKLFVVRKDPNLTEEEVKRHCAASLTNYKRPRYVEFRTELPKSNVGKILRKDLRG

Question: With CC(C)(COP(=O)(O)OP(=O)(O)OC[C@H]1O[C@@H](n2cnc3c(N)ncnc32)[C@H](O)[C@@H]1OP(=O)(O)O)[C@@H](O)C(=O)NCCC(=O)NCCS [CoA] as the compound, how does the “[3H]palmitoyl-CoA formation, heptane extraction, scintillation counting” value ([1]; 200 uM [3H]palmitate) read?
Answer: The value was “acyl-CoA synthetase FadD is able to form acyl-CoA”.

Question: CCCCCCCCCCCCCCCC(=O)O [palmitate] was tested. Which “[3H]palmitoyl-CoA formation, heptane extraction, scintillation counting” value ([1]; 200 uM palmitate, labelled compound) did it give?
Answer: Its value is “Using FadDSm in the acylation assay resulted in an increase in the amount of acyl-CoA”.

Question: CCCCCCCCCCCCCCCC(=O)SCCNC(=O)CCNC(=O)[C@H](O)C(C)(C)COP(=O)(O)OP(=O)(O)OC[C@H]1O[C@@H](n2cnc3c(N)ncnc32)[C@H](O)[C@@H]1OP(=O)(O)O [palmitoyl-CoA] was tested. Which “L-[14C]serine incorporation into 3-oxo-sphinganine, TLC autoradiography, empty-v” value [2] did it give?
Answer: The value was “using the SPTs from C. crescentus, E. coli BL21(DE3) or S. wittichii, and palmitoyl-CoA as thioester”.

Question: And the “L-[14C]serine incorporation into 3-oxo-sphinganine, TLC autoradiography, empty-v” value [3]?
Answer: The value was “using the SPTs from C. crescentus, E. coli BL21(DE3) or S. wittichii, and palmitoyl-CoA as thioester”.

Question: And the “L-[14C]serine incorporation into 3-oxo-sphinganine, TLC autoradiography, empty-v” value [4]?
Answer: The value was “using the SPTs from C. crescentus, E. coli BL21(DE3) or S. wittichii, and palmitoyl-CoA as thioester”.
